Reference: patent US6956044B1, “Compositions and methods for treatment of epilepsy” (priority 2000, dated 2005)

Experiments:
[1] = test system: maximal electroshock seizures; experiment: Maximal electroshock seizure test; type: in vivo; details: albino mice, intraperitoneal, 140 minutes after injection of test compound
Source text: Effect Against Maximal Electroshock Seizures. […] Given intraperitoneally to albino mice these compounds have afforded complete protection from maximal electroshock seizures for several hours. To test the maximal seizure anticonvulsant properties in albino mice weighing approximately 25 grams, first an electrical current was delivered via cranial electrodes at a voltage strength which induced a typical maximal electroconvulsant seizure in all the mice. Maximal tonic electrochock seizures were induced with 2 to 7 milliamperes being discharged at 18 volts, and at a frequency of 1000 per second. Abolition of the hindlimb tonic extension component of the seizure was defined as protection in this maximal electroshock test (L. S. Goodman et al., Jour. Pharm. Exper. Therap., 108: 168, 1953). The apparatus used was structured so that the current administered was independent of external resistance. There were 10 animals per group, and they were exposed to electroshock seizures at 20, 80 and 140 minutes after injection of the test compounds. The mice received graded doses of the compounds, and the dose protecting 50% of the animals was calculated biometrically.

[2] = Intraperitoneal LD50 (Table 2); type: in vivo
[3] = test system: pentylenetetrazol-induced seizures; experiment: Pentylenetetrazol (Metrazol) seizure test; type: in vivo; details: pentylenetetrazol 120 mg/kg i.p. 30 minutes after compound
Procedure: Effect Against Pentylenetetrazol (Metrazol) Seizures. […] The pentylenetetrazol (metrazol), 120 mg/kg, was injected intraperitoneally 30 minutes after the oral administration of the respective graded doses of the compounds. Protection in this test was defined as a failure to detect even a single episode of clonic spasms of at least 5 seconds duration during a 30 minute period following the injection of the metrazol (F. M. Berger, 78:277, 1951). […] Exper. Med. Biol., against pentylenetetrazol seizures ([…] al., Epilepsia, 19: 193-408, 1978).

[4] = Oral LD50 (Table 3); type: in vivo
[5] = test system: Bullfrog sciatic nerve trunk (de-sheathed); experiment: Frog sciatic nerve trunk high frequency stimulation; details: 10 mM
Source text: Pirfenidone: Effect on Frog Sciatic Nerve Trunk High Frequency Stimulation. Bullfrog sciatic nerve trunk (de-sheathed) was stimulated with trains of pulses at 200 Hertz in order to see if pirfenidone affected the nerve's ability to conduct high frequency impulses. […] Drugs that cause “use-dependent” block (high frequency failure) are generally regarded as potential anti-epileptic drugs.

[6] = test system: cat soleus muscle nerve preparation; experiment: Cat soleus muscle nerve preparation, neuromuscular function; type: in vivo; details: for Single impulse transmission: cat soleus muscle nerve preparation
Source text: Pirfenidone: Effect on Neuromuscular Function of the Cat Soleus Muscle Nerve Preparation. […] The action resembles that of phenytoin (J. A. Wada, Arch. Neurol., 34: 389–395, 1977).

[7] = Plasma concentration after oral dosing in man; type: in vivo
Procedure: In laboratory animals or in man, pirfenidone is well absorbed after oral administration. Plasma pirfenidone concentrations in man peak 1 to 4 hours after dosing. Metabolically, first order kinetics prevail over a daily dose range of 1200 to 3600 milligrams of pirfenidone in divided dosage (t.i.d.). Pirfenidone is cleared primarily by hepatic metabolism (S. Giri et al., Amer. Thoracic Soc. International Conf., Apr. 24-29, 1998) mainly hydroxylation and conjugation, and excreted primarily in the urine. […] The highly rapid and efficient oral bioavailability of pirfenidone in humans contrasts with that of oral phenytoin. In man, absorption of phenytoin after oral ingestion is slow, often variable and can be incomplete so that peak or effective concentrations in plasma and tissues may be delayed for 3 or more hours (E. Perucca and […], “Handbook of Exper. Pharmacol.,” Vol. 74: 831-855, 1985, Springer-Verlag, Berlin.)

[8] = test system: nerve after-discharge; experiment: After-discharge on electrical nerve stimulation (neuropharmacological tests in cat and frog); details: cat and frog demonstrations
Source text: However, the molecular mechanism of the anticonvulsant action within neuronal cells remains unknown.

[9] = test system: pentylenetetrazol-induced seizures; details: literature (Krall et al.); cited from earlier work
[10] = man; cited from earlier work

SMILES	I.P. ED50 (dose protecting 50% of mice against maximal electroshock seizures) [1]	I.P. LD50 [2] [mg/kg]	ORAL ED50 (dose protecting 50% of mice against pentylenetetrazol-induced seizures) [3]	ORAL LD50 [4] [mg/kg]	Conduction of high frequency impulses (200 Hertz pulse trains) [5]	Local anesthesia in the nerve [5]	Post-tetanic potentiation (PTP) ([6]; 50 mg/kg intravenously)	Single impulse transmission [6]	Time of peak plasma concentration after dosing [7] [h]	Block of the classical after-discharge when a nerve is electronically stimulated [8]	Activity against pentylenetetrazol seizures [9]	Delay of peak or effective concentrations in plasma and tissues after oral ingestion [10] [h]
O=c1ccccn1-c1ccccc1 [1-phenyl-2-(1H)-pyridone, reference compound]	No Activity	>500	No Activity	540 ± 124	–	–	–	–	–	–	–	–
Cc1cccn(-c2ccccc2)c1=O [3-methyl-1-phenyl-2-(1H)-pyridone]	No Activity	>500	No Activity	650 ± 110	–	–	–	–	–	–	–	–
CCc1ccc(=O)n(-c2ccccc2)c1 [5-ethyl-1-phenyl-2-(1H)-pyridone]	60 ± 10 mg/kg	500 ± 61	285 ± 29 mg/kg	425 ± 48	–	–	–	–	–	–	–	–
Cc1ccc(=O)n(-c2ccccc2)c1 [5-methyl-1-phenyl-2-(1H)-pyridone]	85 ± 11 mg/kg	600 ± 43	325 ± 41 mg/kg	610 ± 34	caused definite high frequency failure	did not cause local anesthesia	suppresses the post-tetanic potentiation	Neither pirfenidone nor phenytoin impair	1 to 4	completely block	–	–
O=C1NC(=O)C(c2ccccc2)(c2ccccc2)N1 [phenytoin (Dilantin), phenytoin, reference compound]	50 ± 15 mg/kg	200 ± 45	No Activity	490 ± 35	–	–	–	Neither pirfenidone nor phenytoin impair	–	completely block	inactive	≥ 3
